One experiment concerns Erysiphe graminis. Kind of experiment: Powdery mildew in barley, foliar application (ERY GRA). Format: in vivo. The following applies: Blumeria graminis, foliar, 192 h, foliar, 1,000 mg/l, 8 days after inoculation, read-out: Percent Reduction of Disease, ERY GRA. The protocol:
Compositions containing Compounds Nos. 1-81 were prepared by dissolving 0.24 grams of each of the compounds in 8 ml of acetone or other suitable inert solvent. Each of the resultant solutions was treated with 3 drops of TWEEN 20 (ethoxylated ethylene sorbitan monolaurate, a non-ionic surfactant)(I.C.I.), and water was added to form an emulsion. The degree of dilution with water was dictated by the desired concentration of the compound in the composition. The greater the quantity of water added, the lower the concentration of the compound in the composition, reported in milligrams per liter (mg/l) Ten plants of "Robust" variety barley were planted in each of a plurality of pots. Each pot was then either sprayed with one of the compositions of Example 9, at a composition concentration of 1,000 mg/l, or left unsprayed. For each pot sprayed, one pot was left unsprayed as a control. After the leaves of the sprayed pots were dried, the sprayed pots and the unsprayed control pots were placed in a greenhouse maintained at 21° C. All the pots were then inoculated with barley powdery mildew fungus, Erysiphe graminis. This inoculation was accomplished by distributing spores of the fungus over the leaves of the plants to be tested from plants which had previously been infected with the mildew disease. […] Again, percent control was computed by comparing the treatment scores with the scores of the untreated controls. The results are summarized in Table II under the heading "ERY GRA".

Another experiment has as its system Helminthosporium sativum. Kind of experiment: Barley spot blotch, foliar treatment (HEL SAT). It is filed as in vivo. To be noted: Helminthosporium, foliar, 216 h, foliar, 1,000 mg/l, read-out: Percent Reduction of Disease, HEL SAT. How it is done:
Compositions containing Compounds Nos. 1-81 were prepared by dissolving 0.24 grams of each of the compounds in 8 ml of acetone or other suitable inert solvent. Each of the resultant solutions was treated with 3 drops of TWEEN 20 (ethoxylated ethylene sorbitan monolaurate, a non-ionic surfactant)(I.C.I.), and water was added to form an emulsion. The degree of dilution with water was dictated by the desired concentration of the compound in the composition. The greater the quantity of water added, the lower the concentration of the compound in the composition, reported in milligrams per liter (mg/l) Ten plants of six day-old Barley (variety "Robust") were planted in each of a plurality of pots. Each pot was then either sprayed with one of the compositions of Example 9, at a concentration of 1,000 mg/l, or left unsprayed. The unsprayed plants were used as controls. An equal number of pots were sprayed and unsprayed. All plants, sprayed and unsprayed, were thereafter inoculated with spores of the blotch fungus Helminthosporium sativum. All inoculated plants were placed in a 99% humidity chamber for 24 hours and then placed in a greenhouse, maintained at a temperature of 21° C., for eight days. […] Percent control was computed and the results are summarized in Table II under the heading "HEL SAT".

Experiment [1] concerns Cercosporidium personatum. Kind of experiment: Fungal germination and growth, treated disc on agar, scored (CER PER). To be noted: disc dipped in 500 mg/l, 29° C., numerical score 0-100, spore suspension. It is filed as cell-based. Also noted: key: 100: Complete inhibition of germination and growth.; 80: Nearly complete inhibition but some growth.; 50: Partial inhibition of growth or, early complete inhibition but later growth begins.; 20: Some inhibition of growth, but not significant.; 0: No inhibition of growth. The source says: Filter paper discs, each 11 mm. in diameter, were dipped in each of the test solutions. The discs were allowed to air dry to drive off the acetone solvent. A number of untreated discs were used as controls. The treated and untreated discs were then placed on agar plates and one of the following fungus species: Septoria nodorum (SEP NOD), Botrytis cinerea (BOT CIN), Fusarium oxysporum (FUS OXY), Pythium ultimum ([…]), Rhizoctonia solani (RHI SOL), Colletotrichum gossypii (COL GOS), and Scierotinia minor (SCL MIN), was added to the center of each disc in the form of a culture plug with the fungus mat in contact with the paper of the test disc. Cercosporidium personatum (CER PER), was added to discs as a spore suspension (20,000 spores/ml) to the disc (two drops of spore suspension per disc), rather than a mycelial culture plug. The plates were then incubated at 29° C. in an oven. In the case of the Cercosporidium personatum (CER PER) fungi, scoring was done on a numerical basis as follows: 100=Complete inhibition of germination and growth. 80=Nearly complete inhibition but some growth. 50=Partial inhibition of growth or, early complete inhibition but later growth begins. 20=Some inhibition of growth, but not significant. 0=No inhibition of growth. The results of all the above tests appear in Table III below under the headings "SEP NOD," "BOT CIN," "FUS OXY," "[…]" "COL GOS" and "CER PER".

For another experiment, the system named is Rhizoctonia solani. Kind of experiment: Fungal growth inhibition, treated disc on agar (RHI SOL). Format: cell-based. To be noted: Rhizoctonia solani, disc dipped in 500 mg/l, 29° C., read-out: Percent Growth Inhibition, RHI SOL.

Consider 25 compounds from patent US5945436A, “Pyridylmethyl nitriles, amides and thioamides useful as fungicides” (Uniroyal Chemical Company, Inc., priority 1997, dated 1999).

On to `N#CC(CCc1ccccc1)(CCc1ccccc1)c1cccnc1` [A, reference compound], for which the pest or weed control at 1000 µg/mL in the experiment on Erysiphe graminis is 0%; in the experiment with Helminthosporium sativum it was 60%. Moreover, the “CER PER inhibition score” value in experiment [1] is 0. The inhibition at 500 µg/mL in the experiment on Rhizoctonia solani came out at 10%.
Turning to `CC(C)(C)c1ccc(CC(C#N)(Cc2ccc(C(C)(C)C)cc2)c2cccnc2)cc1` [B, reference compound], the pest or weed control at 1000 µg/mL in the experiment with Erysiphe graminis came to 15%; in the experiment with Helminthosporium sativum, 0%. Further, the “CER PER inhibition score” value in experiment [1] turned out to be 0. Moreover, in the experiment on Rhizoctonia solani, the inhibition at 500 µg/mL amounted to 15%.
On to `CCCC(C#N)(CCc1ccccc1)c1cccnc1` (centres unmarked) [Compound 1], for which the pest or weed control at 1000 µg/mL with Erysiphe graminis is 100%; in the experiment on Helminthosporium sativum, 65%. Besides, the “CER PER inhibition score” value in experiment [1] stood at 100. The inhibition at 500 µg/mL in the experiment on Rhizoctonia solani turned out to be 95%.
In the case of `CCCCCCCC(C#N)(CCc1ccccc1)c1cccnc1` (centres unmarked) [Compound 2], the pest or weed control at 1000 µg/mL was determined as 100% with Erysiphe graminis and 80% with Helminthosporium sativum. Also, the “CER PER inhibition score” value in experiment [1] worked out at 100. Moreover, in the experiment with Rhizoctonia solani, the inhibition at 500 µg/mL was 0%.
On the same counts, the results for `CCCCCC(C#N)(CCc1ccccc1)c1cccnc1` (centres unmarked) [Compound 3] are 100%, 100%, 100 and 10%.
On the same counts, the results for `C#CCC(C#N)(CCc1ccccc1)c1cccnc1` (centres unmarked) [Compound 4] are 70%, 0%, 100 and 82%.
Turning to `C=CCC(C#N)(CCc1ccccc1)c1cccnc1` (centres unmarked) [Compound 5], the pest or weed control at 1000 µg/mL was determined as 85% in the experiment with Erysiphe graminis and 70% with Helminthosporium sativum. Besides, the “CER PER inhibition score” value in experiment [1] turned out to be 0. In addition, the inhibition at 500 µg/mL in the experiment on Rhizoctonia solani is 100%.
Take `COCC(C#N)(CCc1ccccc1)c1cccnc1` (centres unmarked) [Compound 6]: the pest or weed control at 1000 µg/mL in the experiment with Erysiphe graminis was determined as 70%; with Helminthosporium sativum it was 100%. The “CER PER inhibition score” value in experiment [1] is recorded as 0. In addition, the inhibition at 500 µg/mL in the experiment with Rhizoctonia solani came out at 50%.
For `CC(C)CC(C#N)(CCc1ccccc1)c1cccnc1` (centres unmarked) [Compound 7], the pest or weed control at 1000 µg/mL with Erysiphe graminis was found to be 100%; in the experiment with Helminthosporium sativum it was 70%. Moreover, the “CER PER inhibition score” value in experiment [1] is 0. In the experiment with Rhizoctonia solani, the inhibition at 500 µg/mL came to 94%.
Turning to `CC(C)=CCC(C#N)(CCc1ccccc1)c1cccnc1` (centres unmarked) [Compound 8], the pest or weed control at 1000 µg/mL in the experiment with Erysiphe graminis and in the experiment on Helminthosporium sativum was 100% each time. Further, the “CER PER inhibition score” value in experiment [1] was 80. In addition, the inhibition at 500 µg/mL in the experiment on Rhizoctonia solani turned out to be 45%.
With `C=CCC(C#N)(CCc1ccc(F)cc1)c1cccnc1` (stereo not drawn) [Compound 9, 4-fluoro-α-(2-propenyl)-α-(3-pyridinyl)benzenebutanenitrile], the pest or weed control at 1000 µg/mL with Erysiphe graminis came to 100%; in the experiment with Helminthosporium sativum it was 85%. In experiment [1], the “CER PER inhibition score” value is reported as 100. Also, the inhibition at 500 µg/mL with Rhizoctonia solani was found to be 95%.
Consider `CCCC(C#N)(CCc1ccc(F)cc1)c1cccnc1` (centres unmarked) [Compound 10], for which the pest or weed control at 1000 µg/mL in the experiment on Erysiphe graminis and in the experiment on Helminthosporium sativum was 100% each time. In addition, in experiment [1], the “CER PER inhibition score” value amounted to 100. The inhibition at 500 µg/mL in the experiment on Rhizoctonia solani worked out at 96%.
As to `CCCCC(C#N)(CCc1ccc(F)cc1)c1cccnc1` (centres unmarked) [Compound 11], the pest or weed control at 1000 µg/mL with Erysiphe graminis and with Helminthosporium sativum was 100% throughout. Further, the “CER PER inhibition score” value in experiment [1] is listed as 0. Moreover, the inhibition at 500 µg/mL with Rhizoctonia solani came out at 98%.
For the compound `CCCC(C#N)(CCCc1ccc(Cl)cc1)c1cccnc1` (centres unmarked) [Compound 12], the pest or weed control at 1000 µg/mL in the experiment on Erysiphe graminis and with Helminthosporium sativum was 100% throughout. Besides, the “CER PER inhibition score” value in experiment [1] came out at 100. The inhibition at 500 µg/mL with Rhizoctonia solani came to 98%.
Turning to `CCCCC(C#N)(CCCc1ccc(Cl)cc1)c1cccnc1` (centres unmarked) [Compound 13], the pest or weed control at 1000 µg/mL with Erysiphe graminis and in the experiment with Helminthosporium sativum was 100% each time. Also, the “CER PER inhibition score” value in experiment [1] is on record as 0. The inhibition at 500 µg/mL in the experiment with Rhizoctonia solani was found to be 100%.
With `CCCC(C#N)(Cc1ccc(C(C)(C)C)cc1)c1cccnc1` (centres unmarked) [Compound 14], the pest or weed control at 1000 µg/mL in the experiment with Erysiphe graminis came to 100%; in the experiment on Helminthosporium sativum it was 60%. Further, the “CER PER inhibition score” value in experiment [1] was 0. Besides, in the experiment on Rhizoctonia solani, the inhibition at 500 µg/mL came out at 5%.
Turning to `CCCC(C#N)(CCCc1ccccc1Cl)c1cccnc1` (stereo not drawn) [Compound 15, 2-chloro-α-propyl-(3-pyridinyl)benzene pentanenitrile], the pest or weed control at 1000 µg/mL in the experiment on Erysiphe graminis and in the experiment with Helminthosporium sativum was 100% throughout. Further, the “CER PER inhibition score” value in experiment [1] was 100. Further, in the experiment with Rhizoctonia solani, the inhibition at 500 µg/mL was 98%.
Regarding `CCCCCCC(C#N)(Cc1ccc(C(C)(C)C)cc1)c1cccnc1` (centres unmarked) [Compound 16], the pest or weed control at 1000 µg/mL in the experiment with Erysiphe graminis and in the experiment with Helminthosporium sativum was 85% each time. In addition, in experiment [1], the “CER PER inhibition score” value is given as 0. Further, the inhibition at 500 µg/mL in the experiment on Rhizoctonia solani was 25%.
In the case of `CCCC(C#N)(Cc1ccc(Oc2ccccc2)cc1)c1cccnc1` (centres unmarked) [Compound 17], the pest or weed control at 1000 µg/mL turned out to be 70% with Erysiphe graminis and 0% with Helminthosporium sativum. Also, the “CER PER inhibition score” value in experiment [1] came to 0. For the same compound, in the experiment on Rhizoctonia solani, the inhibition at 500 µg/mL was 45%.
For `C=CCC(C#N)(Cc1ccc(C(C)(C)C)cc1)c1cccnc1` (centres unmarked) [Compound 18], the pest or weed control at 1000 µg/mL in the experiment on Erysiphe graminis and in the experiment with Helminthosporium sativum was 100% each time. In addition, the “CER PER inhibition score” value in experiment [1] was found to be 0. In the experiment on Rhizoctonia solani, the inhibition at 500 µg/mL is 40%.
For the compound `CCCCC(C#N)(Cc1ccc(C(C)(C)C)cc1)c1cccnc1` (centres unmarked) [Compound 19], the pest or weed control at 1000 µg/mL with Erysiphe graminis and in the experiment on Helminthosporium sativum was 100% throughout. The “CER PER inhibition score” value in experiment [1] worked out at 100. Moreover, the inhibition at 500 µg/mL in the experiment on Rhizoctonia solani worked out at 91%.
Regarding `CCCC(C#N)(CCc1ccccc1)c1ccncc1` (centres unmarked) [Compound 25], the pest or weed control at 1000 µg/mL in the experiment on Erysiphe graminis turned out to be 67%; in the experiment with Helminthosporium sativum it was 0%. Further, in experiment [1], the “CER PER inhibition score” value is listed as 0. Besides, in the experiment on Rhizoctonia solani, the inhibition at 500 µg/mL was determined as 4%.
Taken in the same sequence, the figures for `CCCCC(C#N)(CCc1ccccc1)c1ccncc1` (centres unmarked) [Compound 26] were 50%, 0%, 0 and 4%.
As to `CCCCC(C#N)(CCc1ccc(C)cc1)c1cccnc1` (centres unmarked) [Compound 34], the pest or weed control at 1000 µg/mL in the experiment with Erysiphe graminis and in the experiment on Helminthosporium sativum was 100% throughout. Further, the “CER PER inhibition score” value in experiment [1] turned out to be 0.
With `Cc1ccc(CCC(C#N)(CCCF)c2cccnc2)cc1` (centres unmarked) [Compound 81], the pest or weed control at 1000 µg/mL with Erysiphe graminis turned out to be 70%. The “CER PER inhibition score” value in experiment [1] stood at 0. Further, the inhibition at 500 µg/mL in the experiment on Rhizoctonia solani was 5%.
